“And” between values parts separate entries of the source, which are not always exact repeats. Identical values can stand only once.
Test: xn = mol fraction of the nth substance listed

CCCCCCCCCCO + C1CCCCC1
Conditions | viscosity [mPa·s]
293.15 K, 100 kPa, x2 = 0.0822 | 12.17
293.15 K, 100 kPa, x2 = 0.1602 | 10.37
293.15 K, 100 kPa, x2 = 0.2397 | 8.74
293.15 K, 100 kPa, x2 = 0.3476 | 6.8
293.15 K, 100 kPa, x2 = 0.4402 | 5.45
293.15 K, 100 kPa, x2 = 0.5604 | 3.92
293.15 K, 100 kPa, x2 = 0.6506 | 2.95
293.15 K, 100 kPa, x2 = 0.7397 | 2.18
293.15 K, 100 kPa, x2 = 0.8508 | 1.48
293.15 K, 100 kPa, x2 = 0.94 | 1.1
303.15 K, 100 kPa, x2 = 0.0822 | 8.4
303.15 K, 100 kPa, x2 = 0.1602 | 7.28
303.15 K, 100 kPa, x2 = 0.2397 | 6.22
303.15 K, 100 kPa, x2 = 0.3476 | 4.96
303.15 K, 100 kPa, x2 = 0.4402 | 4.02
303.15 K, 100 kPa, x2 = 0.5604 | 2.97
303.15 K, 100 kPa, x2 = 0.6506 | 2.31
303.15 K, 100 kPa, x2 = 0.7397 | 1.77
303.15 K, 100 kPa, x2 = 0.8508 | 1.29
303.15 K, 100 kPa, x2 = 0.94 | 0.98
303.15 K, 101.33 kPa, x1 = 0.1009 | 1.08
303.15 K, 101.33 kPa, x1 = 0.1983 | 1.404
303.15 K, 101.33 kPa, x1 = 0.2985 | 1.829
303.15 K, 101.33 kPa, x1 = 0.3954 | 2.357
303.15 K, 101.33 kPa, x1 = 0.5 | 3.076
303.15 K, 101.33 kPa, x1 = 0.5845 | 3.781
303.15 K, 101.33 kPa, x1 = 0.6939 | 4.863
303.15 K, 101.33 kPa, x1 = 0.7949 | 6.023
303.15 K, 101.33 kPa, x1 = 0.8949 | 7.33
308 K, 101 kPa, x2 = 0.0801 | 6.912
308 K, 101 kPa, x2 = 0.2421 | 5.397
308 K, 101 kPa, x2 = 0.3455 | 4.468
308 K, 101 kPa, x2 = 0.4703 | 3.396
308 K, 101 kPa, x2 = 0.5762 | 2.579
308 K, 101 kPa, x2 = 0.6347 | 2.14
308 K, 101 kPa, x2 = 0.7203 | 1.702
308 K, 101 kPa, x2 = 0.8752 | 1.061
308 K, 101 kPa, x2 = 0.9408 | 0.86
313.15 K, 100 kPa, x2 = 0.0822 | 5.95
313.15 K, 100 kPa, x2 = 0.1602 | 5.22
313.15 K, 100 kPa, x2 = 0.2397 | 4.53
313.15 K, 100 kPa, x2 = 0.3476 | 3.69
313.15 K, 100 kPa, x2 = 0.4402 | 3.04
313.15 K, 100 kPa, x2 = 0.5604 | 2.29
313.15 K, 100 kPa, x2 = 0.6506 | 1.82
313.15 K, 100 kPa, x2 = 0.7397 | 1.43
313.15 K, 100 kPa, x2 = 0.8508 | 1.05
313.15 K, 100 kPa, x2 = 0.94 | 0.81
323.15 K, 100 kPa, x2 = 0.0822 | 4.35
323.15 K, 100 kPa, x2 = 0.1602 | 3.85
323.15 K, 100 kPa, x2 = 0.2397 | 3.36
323.15 K, 100 kPa, x2 = 0.3476 | 2.78
323.15 K, 100 kPa, x2 = 0.4402 | 2.35
323.15 K, 100 kPa, x2 = 0.5604 | 1.84
323.15 K, 100 kPa, x2 = 0.6506 | 1.51
323.15 K, 100 kPa, x2 = 0.7397 | 1.22
323.15 K, 100 kPa, x2 = 0.8508 | 0.91
323.15 K, 100 kPa, x2 = 0.94 | 0.71

Cl[Si](Cl)(Cl)Cl + COCOC
303.1 K, 101 kPa
Conditions | viscosity [mPa·s]
x2 = 0.0989 | 0.419
x2 = 0.1906 | 0.412
x2 = 0.2879 | 0.402
x2 = 0.3682 | 0.405
x2 = 0.3933 | 0.41
x2 = 0.4424 | 0.414
x2 = 0.5106 | 0.428
x2 = 0.596 | 0.458
x2 = 0.6589 | 0.472
x2 = 0.7083 | 0.461
x2 = 0.7984 | 0.434
x2 = 0.8477 | 0.414
x2 = 0.9026 | 0.369

NC(N)=O + C[N+](C)(C)CCO.[Cl-]
viscosity
Conditions | 100 kPa | 101 kPa
293.15 K, x2 = 0.326 | 1696 mPa·s | –
298.15 K, x2 = 0.33 | 952.7 mPa·s | –
298.15 K, x2 = 0.333 | 750 mPa·s and 1264 mPa·s | 859.5 mPa·s
298.15 K, x2 = 0.3333 | – | 748.1 mPa·s
303 K, x2 = 0.3333 | – | 427.4 mPa·s
303.15 K, x1 = 0.7 | – | 893 mPa·s
303.15 K, x2 = 0.326 | 635.5 mPa·s | –
303.15 K, x2 = 0.33 | 628.9 mPa·s | 536.9 mPa·s
303.15 K, x2 = 0.333 | 562.7 mPa·s | –
303.15 K, x2 = 0.3333 | – | 511.6 mPa·s
308 K, x2 = 0.333 | – | 402.8 mPa·s
308 K, x2 = 0.3333 | – | 310.5 mPa·s
308.15 K, x2 = 0.326 | 414.6 mPa·s | –
308.15 K, x2 = 0.33 | 421.9 mPa·s | –
308.15 K, x2 = 0.333 | – | 348.2 mPa·s
308.15 K, x2 = 0.3333 | – | 351.5 mPa·s
313 K, x2 = 0.333 | – | 228 mPa·s
313 K, x2 = 0.3333 | – | 225.8 mPa·s
313.15 K, x2 = 0.326 | 280.7 mPa·s | –
313.15 K, x2 = 0.33 | 314 mPa·s | 242.5 mPa·s
313.15 K, x2 = 0.333 | 296.3 mPa·s | –
313.15 K, x2 = 0.3333 | – | 243 mPa·s
318 K, x2 = 0.3333 | – | 163.3 mPa·s
318.15 K, x2 = 0.326 | 196.4 mPa·s | –
318.15 K, x2 = 0.33 | 224.4 mPa·s | –
318.15 K, x2 = 0.333 | 244.7 mPa·s | 175.1 mPa·s
318.15 K, x2 = 0.3333 | – | 169.6 mPa·s
323 K, x2 = 0.333 | – | 105.6 mPa·s
323 K, x2 = 0.3333 | – | 121 mPa·s
323.15 K, x1 = 0.7 | – | 197 mPa·s
323.15 K, x2 = 0.326 | 142 mPa·s | –
323.15 K, x2 = 0.33 | 161.2 mPa·s | –
323.15 K, x2 = 0.333 | 171.5 mPa·s and 198.4 mPa·s | –

NC(N)=O + CCO
viscosity [mPa·s], 101 kPa
Conditions | 293.15 K | 298.15 K | 303.15 K | 308.15 K | 313.15 K | 318.15 K | 323.15 K
x1 = 0.02956 | 1.328 | 1.204 | 1.095 | 0.999 | 0.914 | 0.839 | 0.772
x1 = 0.03764 | 1.386 | 1.251 | 1.134 | 1.031 | 0.94 | 0.859 | 0.788
x1 = 0.04782 | 1.476 | 1.329 | 1.202 | 1.09 | 0.991 | 0.904 | 0.828

NC(N)=O + CCCO
viscosity [mPa·s], 101 kPa
Conditions | 298.15 K | 303.15 K | 308.15 K | 313.15 K | 318.15 K
x1 = 0.025 | 2.16 | 1.896 | 1.691 | 1.502 | 1.339
x1 = 0.0385 | 2.24 | 2.003 | 1.768 | 1.568 | 1.401

CCCCCCCCCCCC + CC(C)O
viscosity [mPa·s], 101.32 kPa
Conditions | 293.15 K | 298.15 K | 303.15 K
x2 = 0.0422 | 1.446 | 1.325 | 1.219
x2 = 0.0957 | 1.424 | 1.306 | 1.191
x2 = 0.2215 | 1.397 | 1.276 | 1.177
x2 = 0.3267 | 1.396 | 1.27 | 1.164
x2 = 0.3943 | 1.407 | 1.28 | 1.167
x2 = 0.4959 | 1.421 | 1.28 | 1.16
x2 = 0.5981 | 1.48 | 1.324 | 1.192
x2 = 0.6957 | 1.566 | 1.392 | 1.243
x2 = 0.8012 | 1.714 | 1.503 | 1.33
x2 = 0.9005 | 1.92 | 1.674 | 1.467
x2 = 0.9502 | 2.101 | 1.815 | 1.58

CCOC(=O)OCC + CCCCCCO
101 kPa
Conditions | viscosity [mPa·s]
293.15 K, x1 = 0.0551 | 4.432
293.15 K, x1 = 0.1001 | 3.822
293.15 K, x1 = 0.2106 | 2.778
293.15 K, x1 = 0.3101 | 2.17
293.15 K, x1 = 0.4052 | 1.77
293.15 K, x1 = 0.5061 | 1.454
293.15 K, x1 = 0.6093 | 1.229
293.15 K, x1 = 0.7555 | 0.999
293.15 K, x1 = 0.7968 | 0.958
293.15 K, x1 = 0.8927 | 0.868
293.15 K, x1 = 0.9522 | 0.826
303.15 K, x1 = 0.05134 | 3.305
303.15 K, x1 = 0.1004 | 2.818
303.15 K, x1 = 0.2102 | 2.088
303.15 K, x1 = 0.3094 | 1.667
303.15 K, x1 = 0.4091 | 1.367
303.15 K, x1 = 0.5094 | 1.145
303.15 K, x1 = 0.6017 | 0.998
303.15 K, x1 = 0.7089 | 0.873
303.15 K, x1 = 0.8045 | 0.795
303.15 K, x1 = 0.9051 | 0.734
303.15 K, x1 = 0.9543 | 0.715
313.15 K, x1 = 0.06803 | 2.378
313.15 K, x1 = 0.222 | 1.602
313.15 K, x1 = 0.3216 | 1.303
313.15 K, x1 = 0.4055 | 1.125
313.15 K, x1 = 0.5084 | 0.954
313.15 K, x1 = 0.6037 | 0.839
313.15 K, x1 = 0.7059 | 0.748
313.15 K, x1 = 0.8097 | 0.682
313.15 K, x1 = 0.9065 | 0.642
313.15 K, x1 = 0.957 | 0.625

— the CheMixHub viscosity set
